Experimental data: ChEMBL document CHEMBL1129634, “Antimicrobial alpha, alpha-dialkylated amino acid rich peptides with in-vivo activity against an intracellular pathogen” (1996)
Converted amounts (≈) assume the structure as drawn. Where a SMILES comes first, the peptide text is derived from it. [ ]: non-standard residue; d: D form. Ac6c = NC1(C(=O)O)CCCCC1; Api = NC1(C(=O)O)CCNCC1; Aib = CC(C)(N)C(=O)O

Assays:
Assay type in all cases: functional
Escherichia coli = assay: In vitro antibacterial activity of the peptide was tested against Escherichia coli
Staphylococcus aureus = assay: In vitro antibacterial activity of the peptide was tested against Staphylococcus aureus
Mus musculus [1] = assay: In vivo antimicrobial activity of 500 microg peptide against Brucella abortus in chronically infected BALB/c mice
Mus musculus [2] = assay: In vivo antimicrobial activity of 1 mg peptide against Brucella abortus in chronically infected BALB/c mice
[3] = % helicity of the compound

Compound | MIC (Escherichia coli) [µM] | MIC (Staphylococcus aureus) [µM] | Reduction (Mus musculus [1]) [%] | Reduction (Mus musculus [2]) [%] | Helicity [3] [%]
NCCCC[C@H](NC(=O)[C@H](CCCCN)NC(=O)C1(NC(=O)C2(NC(=O)[C@H](CCCCN)NC(=O)C3(NC(=O)C4(NC(=O)[C@H](CCCCN)NC(=O)[C@@H](N)CCCCN)CCCCC4)CCCCC3)CCCCC2)CCCCC1)C(=O)NC1(C(N)=O)CCCCC1 (H-KK[Ac6c][Ac6c]K[Ac6c][Ac6c]KK[Ac6c]-NH2) | 5.7 (≈ 7.32 µg/mL) | 2.8 (≈ 3.59 µg/mL) |  |  | 
NCCCC[C@H](NC(=O)[C@H](CCCCN)NC(=O)C1(NC(=O)C2(NC(=O)[C@H](CCCCN)NC(=O)C3(NC(=O)C4(NC(=O)[C@H](CCCCN)NC(=O)[C@H](CCCCN)NC(=O)C5(NC(=O)C6(NC(=O)[C@@H](N)CCCCN)CCCCC6)CCCCC5)CCCCC4)CCCCC3)CCCCC2)CCCCC1)C(=O)NC1(C(N)=O)CCCCC1 (H-K[Ac6c][Ac6c]KK[Ac6c][Ac6c]K[Ac6c][Ac6c]KK[Ac6c]-NH2) | 4.5 (≈ 7.48 µg/mL) | 2.2 (≈ 3.66 µg/mL) |  |  | 
CC(=O)N[C@@H](CCCCN)C(=O)N[C@@H](CCCCN)C(=O)NC(C)(C)C(=O)NC(C)(C)C(=O)N[C@@H](CCCCN)C(=O)NC(C)(C)C(=O)NC(C)(C)C(=O)N[C@@H](CCCCN)C(=O)N[C@@H](CCCCN)C(=O)NC(C)(C)C(=O)NC(C)(C)C(N)=O (Ac-KK[Aib][Aib]K[Aib][Aib]KK[Aib][Aib]-NH2) | 6.6 (≈ 7.99 µg/mL) | 212 (≈ 257 µg/mL) | 30 |  | 
CC(C)(NC(=O)C(C)(C)NC(=O)[C@H](CCCCN)NC(=O)[C@H](CCCCN)NC(=O)C(C)(C)NC(=O)C(C)(C)NC(=O)[C@H](CCCCN)NC(=O)C(C)(C)NC(=O)C(C)(C)NC(=O)[C@H](CCCCN)NC(=O)[C@@H](N)CCCCN)C(N)=O (H-KK[Aib][Aib]K[Aib][Aib]KK[Aib][Aib]-NH2) | 55 (≈ 64.3 µg/mL) | > 220 | <63 |  | 
H-KAAKKAAKAAKKAA-NH2 | > 178 | > 178 |  | 6 | 
NCCCC[C@H](NC(=O)[C@H](CCCCN)NC(=O)C1(NC(=O)C2(NC(=O)[C@H](CCCCN)NC(=O)C3(NC(=O)C4(NC(=O)[C@H](CCCCN)NC(=O)[C@@H](N)CCCCN)CCCCC4)CCCCC3)CCCCC2)CCCCC1)C(=O)NC1(C(=O)NC2(C(N)=O)CCCCC2)CCCCC1 (H-KK[Ac6c][Ac6c]K[Ac6c][Ac6c]KK[Ac6c][Ac6c]-NH2) | 5.2 (≈ 7.33 µg/mL) | 2.6 (≈ 3.66 µg/mL) |  |  | 
CC(C)(N)C(=O)NC(C)(C)C(=O)NC1(C(=O)N[C@@H](CCCCN)C(=O)NC(C)(C)C(=O)NC(C)(C)C(=O)NC2(C(=O)N[C@@H](CCCCN)C(=O)NC(C)(C)C(=O)NC(C)(C)C(N)=O)CCNCC2)CCNCC1 (H-[Aib][Aib][Api]K[Aib][Aib][Api]K[Aib][Aib]-NH2) | 7.7 (≈ 7.98 µg/mL) | 123 (≈ 127 µg/mL) | 90 |  | 
CC(C)(N)C(=O)NC(C)(C)C(=O)N[C@@H](CCCCN)C(=O)N[C@H](CCCCN)C(=O)NC(C)(C)C(=O)NC(C)(C)C(=O)N[C@@H](CCCCN)C(=O)NC(C)(C)C(=O)NC(C)(C)C(=O)N[C@H](CCCCN)C(=O)N[C@@H](CCCCN)C(=O)NC(C)(C)C(=O)NC(C)(C)C(=O)N[C@H](CCCCN)C(=O)O |  |  |  |  | 42
CC(C)(N)C(=O)NC(C)(C)C(=O)N[C@@H](CCCCN)C(=O)N[C@H](CCCCN)C(=O)NC(C)(C)C(=O)NC(C)(C)C(=O)N[C@@H](CCCCN)C(=O)NC(C)(C)C(=O)NC(C)(C)C(=O)N[C@H](CCCCN)C(=O)N[C@@H](CCCCN)C(=O)O |  |  |  |  | 35
NCCCC[C@H](NC(=O)[C@@H](CCCCN)NC(=O)C1(NC(=O)C2(NC(=O)[C@H](CCCCN)NC(=O)C3(NC(=O)C4(NC(=O)[C@@H](CCCCN)NC(=O)[C@H](CCCCN)NC(=O)C5(N)CCCCC5)CCCCC4)CCCCC3)CCCCC2)CCCCC1)C(=O)O |  |  |  |  | 43
CC(C)(N)C(=O)NC(C)(C)C(=O)N[C@H](CCCCN)C(=O)NC1(C(=O)NC(C)(C)C(=O)NC(C)(C)C(=O)N[C@H](CCCCN)C(=O)NC2(C(=O)NC(C)(C)C(=O)NC(C)(C)C(=O)O)CCNCC2)CCNCC1 |  |  |  |  | 43
CC(C)(NC(=O)C(C)(C)NC(=O)[C@H](CCCCN)NC(=O)[C@H](CCCCN)NC(=O)C(C)(C)NC(=O)C(C)(C)NC(=O)[C@H](CCCCN)NC(=O)C(C)(C)NC(=O)C(C)(C)NC(=O)[C@H](CCCCN)NC(=O)[C@H](CCCCN)NC(=O)C(C)(C)NC(=O)C(C)(C)NC(=O)[C@@H](N)CCCCN)C(N)=O (H-K[Aib][Aib]KK[Aib][Aib]K[Aib][Aib]KK[Aib][Aib]-NH2) | 5.5 (≈ 8.07 µg/mL) | 11 (≈ 16.1 µg/mL) | <73 |  | 
